Test results reported in US6365616B1, “Methimazole derivatives and tautomeric cyclic thiones to treat autoimmune diseases” (Sentron Medical, Inc., priority 1998, dated 2002).
Where two headings read alike, the source gives them in different places.

What was measured:
[1] = system: MHC class I antigen expression; test: Flow cytometry of IFN-increased class I antigen expression in FRTL-5 cells; format: cell-based, rat; conditions: 100 U/ml γ-interferon, 6H medium (TSH), 40 hours
Protocol: In this experiment 10^6 cells were incubated with MHC class II or MHC class I-specific antibodies as described (Montani, V., et al., ibid (1998b); Saji, M., et al., ibid (1992a); Balducci-Silano, P. L., et al., Endocrinology 139:2309-2313 (1998)). After 30 min on ice, cells were washed with phosphate buffered saline at pH 7.4 and incubated for 30 min with fluorescein-isothiocyanate (FITC)-conjugated antibodies then analyzed by flow cytometry on a FACScan Cytometer using CellQuest software (Becton Dickinson).
The concentration needed to achieve suppression of the interferon induced class I or class II surface expression was determined by testing different concentrations of the compounds (Table 18). Like all other assays, the order of effectiveness was compound 10>11>7 or 8>2>MMI>3.

MHC class I RNA = test: Northern analysis of MHC class I RNA levels in FRTL-5 cells; format: cell-based, rat; conditions: 40 hours; for inhibition at 100 µM / inhibition at 1000 µM / inhibition at 5000 µM: Rattus norvegicus, FRTL-5; for inhibition at 1000 µM: 1 mM; for inhibition at 5000 µM: 5 mM
[2] = system: Y box protein (TSEP-1) RNA; test: Northern analysis of Y box protein (TSEP-1) RNA levels in FRTL-5 cells; format: cell-based, rat; conditions: 40 hours
From the text: Whereas γ-IFN decreases Y box protein RNA levels in FRTL-5 cells, MMI can reverse this action (FIG. 16). […] The rat TSEP-1 probe was the clone 31 insert, residues 5 to 1395 of the rat TSEP-1 nucleotide sequence reported (Ohmori, M., et al., ibid (1996)); rat β-actin was kindly provided by Dr. B. Paterson (NCI, Bethesda, Md.). Radiolabeling of all probes, hybridization (0.5-1.0×10^6cpm/ml), and washing were as described (Isozaki, O., et al., ibid (1989); Saji, M., et al., ibid (1992); Ohmori, M., et al., ibid (1996)).
The ability of the compounds to reverse the γ-IFN-induced decrease in TSEP-1 RNA levels is once again 10>11>7 or 8>2>MMI>3. This mimics data in all other assays.

[3] = system: swine class I promoter (PD1); test: Luciferase assay, FRTL-5 cells stably transfected with class I promoter-luciferase chimeras; format: cell-based; conditions: Sus scrofa, FRTL-5, 6H medium, 40 hours; for inhibition at 1000 µM: 1.0 mM
From the text: The swine PD1 5′-flanking sequence-CAT chimeras (−1100, −203, and −127), as well as two mutants with the CRE site with −107 to −100 bp deleted (−203ΔCRE and −127ΔCRE) were used to create luciferase reporter gene constructs. The inserts were released by restriction enzyme digestion, purified from agarose gel using QIAEX (QIAGEN, Chatsworth, Calif.) and ligated in the NheI-HindIII site of the PGL-2 basic vector (PROMEGA, Madison, Wis.) using a DNA ligation kit from TAKARA biomedicals (TAKARA SHUZO Co). JM109 bacterial competent cells (PROMEGA, Madison, Wis.) were transformed with the ligation reaction and plated in agar plates for 12 h at 37° C. The colonies were picked and screened with minipreps using QIAprep spin plasmid kit (QIAGEN, Chatsworth, Calif.) and restriction enzyme digestion. The plasmids were then purified by CsCl gradient centrifugation.
The PD1-PGL-2 basic constructs and the Class II-PGL-2 basic constructs were stably transfected in the FRTL-5 cells using a Lipofectamine (GIBCO, Life Technologies, Inc.) method. Near confluent cells in 6H medium were cotransfected with 20 μg of plasmid DNA and 2 μg of a pcDNA3neo or a pPUR selection vector (CLONTECH, Palo Alto, Calif.). After 24-48 hours, 400 μg/ml of G418 (GIBCO, Life Technologies, Inc.) or 10 μM of puromycin (SIGMA) were added to the medium. After 3 weeks the antibiotic-resistant colonies were cloned by limiting dilution and screened to determine their interferon sensitivity. At least 5 cell lines of each construct were isolated, each of whose activity was increased by adding 100 U/ml γ interferon to the medium of the cells. The following data (Tables 10-13) were obtained with one clone of each of the class I or class II-luciferase chimera, but were representative of at least three other clones of each.
Luciferase activity was measured using the Luciferase assay system (PROMEGA, Madison, Wis.). Briefly, treated or untreated cells from a 100 mm culture dish were washed with PBS, scraped and collected in microfuge tubes. The pellet was dissolved in 100 μl 1× reporter lysis buffer and incubated at room temperature for 15 minutes. Cells were frozen in dry ice plus ethanol and thawed in water at room temperature. After vortexing for 10 sec, tubes were centrifuged at 12,000×g for 5 min. Twenty μl of the supernatant were mixed with 100 μl of Luciferase assay reagent and immediately placed in a luminometer. Light was measured for a period of 10 sec after a 2 sec delay.
Treatment of cells, maintained either in the presence of TSH or its absence, with 100 U/ml interferon, increased class I and class II promoter activity (Table 10). In this experiment FRTL-5 cells were grown to 80% confluency in 6H medium with TSH then treated with 100 U/ml γ-interferon, 5 mM MMI or both together. Luciferase activity was measured after 40 hours as described. Several points are notable. First, interferon increases both class I and class II promoter activity in the stable transfectants. Second, MMI inhibits both interferon-increased class I and interferon-increased class II promoter activity.

[4] = 100 U/ml γ-interferon, 6H medium (TSH), read-out: % inhibition of class I RNA expression (γ-interferon-treated)
[5] = basal, 5H medium, read-out: % inhibition of class I RNA expression (basal)
[6] = 100 U/ml γ-interferon, read-out: % inhibition of IFN-increased p(−203)LUC class I promoter activity
[7] = read-out: % inhibition of basal p(−203)LUC class I promoter activity

Cn1c(-c2ccccc2)cnc1S [Compound 10, 5-Phenylmethimazole]
Concentration to inhibit IFN-increased antigen expression, Class I [1]: 40 ± 10 µM | inhibition at 100 µM (MHC class I RNA; 100 μM, 100 U/ml γ-interferon, 6H medium (TSH), read-out: % inhibition of class I RNA expression (γ-interferon-treated)): 42 ± 14% | inhibition at 100 µM (MHC class I RNA; 100 μM, basal, 5H medium, read-out: % inhibition of class I RNA expression (basal)): 60 ± 8% | inhibition at 1000 µM (MHC class I RNA; [4]): 60 ± 12% | inhibition at 1000 µM (MHC class I RNA; [5]): 85 ± 16% | Y box protein (TSEP-1) RNA level, compound +γIFN ([2]; 100 μM compound + γIFN): 183 ± 12% | Y box protein (TSEP-1) RNA level, compound ALONE ([2]; 100 μM compound alone): 124 ± 4% | Y box protein (TSEP-1) RNA level, compound +γIFN ([2]; 1 mM compound + γIFN): 178 ± 10% | Y box protein (TSEP-1) RNA level, compound ALONE ([2]; 1 mM compound alone): 122 ± 8% | inhibition at 10 µM [3, 6]: 45 ± 7% | inhibition at 25 µM [3, 7]: 41 ± 5% | inhibition at 100 µM [3, 7]: 51 ± 3% | inhibition at 100 µM [3, 6]: 90 ± 17% | inhibition at 1000 µM [3, 7]: 52 ± 8% | inhibition at 1000 µM [3, 6]: 90 ± 13%

Cc1ncc([N+](=O)[O-])n1CCO [Compound 2, 2-Methyl-5-nitro-1-imidazole ethanol]
Concentration to inhibit IFN-increased antigen expression, Class I [1]: 500 ± 1400 µM | % inhibition of class I RNA expression (γ-interferon-treated) (MHC class I RNA; 100 μM, 100 U/ml γ-interferon, 6H medium (TSH)): None | % inhibition of class I RNA expression (basal) (MHC class I RNA; 100 μM, basal, 5H medium): None | inhibition at 1000 µM (MHC class I RNA; [4]): 42 ± 5% | inhibition at 1000 µM (MHC class I RNA; [5]): 49 ± 6% | inhibition at 5000 µM (MHC class I RNA; [4]): 68 ± 13% | inhibition at 5000 µM (MHC class I RNA; [5]): 63 ± 14% | Y box protein (TSEP-1) RNA level, compound +γIFN ([2]; 100 μM compound + γIFN): 43 ± 6% | Y box protein (TSEP-1) RNA level, compound ALONE ([2]; 100 μM compound alone): 104 ± 4% | Y box protein (TSEP-1) RNA level, compound +γIFN ([2]; 1 mM compound + γIFN): 126 ± 9% | Y box protein (TSEP-1) RNA level, compound ALONE ([2]; 1 mM compound alone): 106 ± 11% | Y box protein (TSEP-1) RNA level, compound +γIFN ([2]; 5 mM compound + γIFN): 163 ± 15% | Y box protein (TSEP-1) RNA level, compound ALONE ([2]; 5 mM compound alone): 112 ± 4% | inhibition at 10 µM [3, 6]: 0% | inhibition at 25 µM [3, 7]: 0% | inhibition at 100 µM [3, 7]: 0% | inhibition at 100 µM [3, 6]: 10 ± 6% | inhibition at 1000 µM [3, 7]: 42 ± 6% | inhibition at 1000 µM [3, 6]: 57 ± 5%
